Data from ChEMBL document CHEMBL1212803, “Resistance-associated mutations to etravirine (TMC-125) in antiretroviral-naïve patients infected with non-B HIV-1 subtypes” (2010).

How the values were obtained:
Type in all cases: functional
[1] = test system: Human immunodeficiency virus 1; assay: Antiviral activity against HIV-1 subtype CRF02_AG containing reverse transcriptase V90I/V35T, T39M, K46Q, V60I, S68G, D123E, I135V, S162A, K173A, Q174K,D177E, T200A, Q207E, R211K mutant relative to control
[2] = test system: Human immunodeficiency virus 1; assay: Antiviral activity against HIV-1 subtype CRF02_AG containing reverse transcriptase V90I/V35T, E36D, V60I, K122E, D123S, I135V, E138D, S162A, K173T,Q174S, D177E, I178M, V189I, T200A, I202V, Q207E, F214L, V245Q mutant relative to control
[3] = test system: Human immunodeficiency virus 1; assay: Antiviral activity against HIV-1 subtype CRF02_AG containing reverse transcriptase A98G/V35T, V60I, I135L, S162A, K173A, Q174K, D177E, I178M, T200A,Q207E, R211K, V245Q, D250E mutant relative to control
[4] = test system: Human immunodeficiency virus 1; assay: Antiviral activity against HIV-1 subtype CRF02_AG containing reverse transcriptase K101E/K30E, I31P, V35Q, T39S, E44G, E53G, A62G, N81H, Q91H,I135V,S162A, K173S, Q174R, D177E, V179I, T200I, Q207N, R211K, F214L mutant relative to control
[5] = test system: Human immunodeficiency virus 1; assay: Antiviral activity against HIV-1 subtype CRF02_AG containing reverse transcriptase E138A/K20R, V35T, E36A, T39D, V60I, I135V, T139I, K173A, Q174K, T200E, Q207A, R211K, F214L mutant relative to control
[6] = test system: Human immunodeficiency virus 1; assay: Antiviral activity against HIV-1 subtype CRF02_AG containing reverse transcriptase E138A/K20R, V35T, E36D, T39N, V60I, D123N, I135V, S162A, K173T, Q174K, D177E, T200A, Q207E, R211K mutant relative to control
[7] = test system: Human immunodeficiency virus 1; assay: Antiviral activity against HIV-1 subtype CRF02_AG containing reverse transcriptase Y181C/V35T, V60I, I135V, S162A, K173T, Q174K, N175Y, D177E, T200A, Q207E, R211K, H221Y mutant relative to control
[8] = test system: Human immunodeficiency virus 1; assay: Antiviral activity against HIV-1 subtype CRF02_AG containing reverse transcriptase V90I,Y181C/V35T, T39M, P119S, D123E, S162A, E169D, K173T, Q174K, D177E, T200A, Q207E, K219N, V245Q, E248D mutant relative to control
[9] = test system: Human immunodeficiency virus 1; assay: Antiviral activity against HIV-1 subtype CRF02_AG containing reverse transcriptase V90I,A98G/V35T, E36D, T39K, S48A, I50V, V60I, S68G, I135V, S162A, K173T, Q174K, D177E, G196E, T200A, E203G, Q207D, R211K, Q222P mutant relative to control

**Q.** For `Cc1ccnc2c1NC(=O)c1cccnc1N2C1CC1` [NEVIRAPINE], which “Ratio IC50” value [1] is on record?
**A.** 1.3

**Q.** What about the “Ratio IC50” value [2] of the same compound?
**A.** 0.7

**Q.** What about the “Ratio IC50” value [3] of the same compound?
**A.** 8.3

**Q.** And the “Ratio IC50” value [4]?
**A.** 2.2

**Q.** And the “Ratio IC50” value [5]?
**A.** 0.5

**Q.** And the “Ratio IC50” value [6]?
**A.** 0.4

**Q.** What about the “Ratio IC50” value [7] of the same compound?
**A.** >49.6

**Q.** And the “Ratio IC50” value [8]?
**A.** >70.9

**Q.** And the “Ratio IC50” value [9]?
**A.** 2.4

**Q.** With `Cc1cc(C#N)cc(C)c1Oc1nc(Nc2ccc(C#N)cc2)nc(N)c1Br` [ETRAVIRINE] as the compound, how does the “Ratio IC50” value [1] read?
**A.** 1.6

**Q.** And the “Ratio IC50” value [2]?
**A.** 1.3

**Q.** And the “Ratio IC50” value [3]?
**A.** 2.9

**Q.** What about the “Ratio IC50” value [4] of the same compound?
**A.** 1.3

**Q.** And the “Ratio IC50” value [5]?
**A.** 3

**Q.** What about the “Ratio IC50” value [6] of the same compound?
**A.** 1.7

**Q.** What about the “Ratio IC50” value [7] of the same compound?
**A.** 11.1

**Q.** What about the “Ratio IC50” value [8] of the same compound?
**A.** 3.3

**Q.** And the “Ratio IC50” value [9]?
**A.** 1.2
